Laboratory results as given in patent US11958876B2, “Carbacyclic phosphatidic acid compound” (OTSUKA CHEMICAL CO., LTD., priority 2019, dated 2024).
Counter-ions that a name gives are not always drawn. One block for each compound: values may come before it.

Assay: Stability test of 2ccPA crystals with added 2ccPA-L or 2ccPA-P (thermo-hygrostat, HPLC purity)
Type: physicochemical
Conditions: 40° C., humidity 60%
Experimental: 2ccPA-L of Example 2 or 2ccPA-P of Comparative Example 2 was added to 2ccPA, and a stability test was performed. • Control: 2ccPA crystal • Test substances: crystals obtained by adding 2ccPA-L or 2ccPA-P at each concentration to 2ccPA, followed by crystallization with methanol and acetone. (2) Execution Conditions
In the stability test, a thermo-hygrostat (Yamato Scientific Co., Ltd., IW223) was used. The stability test was performed while maintaining a set temperature of 40° C. and a set humidity of 60%.
The sample purity was confirmed in such a manner that about 10 mg of each sample was weighed every week and diluted with 2 mL of acetonitrile/water (volume ratio: 1/1), and the diluted solution was analyzed by high-performance liquid chromatography (Shimadzu LC20AD).
The results are shown in Table 1 (Example 2) and Table 2 (Comparative Example 2). Tables 1 and 2 focus only on 2ccPA, and show the residual rate thereof with the initial content of 2ccPA as 100 mass %.

Stability test (1 week): residual rate of 2ccPA (control 2ccPA crystal, 0 mass % additive, 1 week, initial 2ccPA content as 100 mass %): 100%
Stability test (2 weeks): residual rate of 2ccPA (control 2ccPA crystal, 0 mass % additive, 2 weeks, initial 2ccPA content as 100 mass %): 94.4%
Structure (SMILES): CCCCCCCC/C=C\CCCCCCCC(=O)OCC1COP(=O)(O)C1 (stereo not shown) [Example 2ccPA, sodium salt of 9-octadecenoic acid (9Z)-(2-hydroxy-2-oxo-2λ^5-1,2-oxaphosphoran-4-yl)methyl ester]

Effect on purity of 2ccPA on storage (in words) (0.15 mass % 2ccPA-P added to 2ccPA): the purity was reduced
Structure (SMILES): CCCCCCCCCCCCCCCC(=O)OCC1COP(=O)(O)C1 (stereo not shown) [Example 2ccPA-P]

Effect on purity of 2ccPA on storage (in words) (2ccPA-L coexisting with 2ccPA, storage 1 or 2 weeks): hardly reduced
Structure (SMILES): CCCCC/C=C\C/C=C\CCCCCCCC(=O)OCC1COP(=O)(O)C1 (stereo not shown) [Example 2ccPA-L]
